In PubChem BioAssay AID192 (DTP/NCI, 2004) one finds T/C data, which are given here for 22 molecules.

The test system of the experiment is BDF1 mice, B16 melanoma ip, median survival T/C. In words: NCI In Vivo Anticancer Drug Screen. Data for tumor model B16 Melanoma (intraperitoneal) in B6D2F1 (BDF1) mice. The note with it: endpoint: median survival time, higher = longer survival. In short, it runs like this:
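Mice with transplantable tumors; drug vs vehicle groups; endpoint survival or tumor size; value = T/C.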

Setting [1] is: dose: 50.0 mg/kg/injection, schedule: Q01DX009 (ip), vehicle: Klucel (hydroxypropylcellulose) (HPC).
Where [2] appears, read: dose: 100.0 mg/kg/injection, schedule: Q01DX009 (ip), vehicle: Klucel (hydroxypropylcellulose) (HPC).
[3] abbreviates: dose: 25.0 mg/kg/injection, schedule: Q01DX009 (ip), vehicle: saline with Tween-80.
Setting [4] is: dose: 50.0 mg/kg/injection, schedule: Q01DX009 (ip), vehicle: saline with Tween-80.
Where [5] appears, read: dose: 25.0 mg/kg/injection, schedule: Q01DX009 (ip), vehicle: Klucel (hydroxypropylcellulose) (HPC).
Setting [6] is: dose: 200.0 mg/kg/injection, schedule: Q01DX009 (ip), vehicle: Klucel (hydroxypropylcellulose) (HPC).
Setting [7] is: dose: 400.0 mg/kg/injection, schedule: Q01DX009 (ip), vehicle: Klucel (hydroxypropylcellulose) (HPC).
Setting [8] is: dose: 100.0 mg/kg/injection, schedule: Q01DX009 (ip), vehicle: saline with Tween-80.
Setting [9] is: dose: 200.0 mg/kg/injection, schedule: Q01DX009 (ip), vehicle: saline with Tween-80.
Setting [10] is: dose: 400.0 mg/kg/injection, schedule: Q01DX009 (ip), vehicle: saline with Tween-80.
[11] abbreviates: dose: 5.0 mg/kg/injection, schedule: Q01DX009 (ip), vehicle: saline.
[12] abbreviates: dose: 10.0 mg/kg/injection, schedule: Q01DX009 (ip), vehicle: saline.
Setting [13] is: dose: 20.0 mg/kg/injection, schedule: Q01DX009 (ip), vehicle: saline.
The mark [14] stands for this setting: dose: 5.0 mg/kg/injection, schedule: Q01DX009 (ip), vehicle: saline with Tween-80.
The mark [15] stands for this setting: dose: 20.0 mg/kg/injection, schedule: Q01DX009 (ip), vehicle: saline with Tween-80.
Setting [16] is: dose: 40.0 mg/kg/injection, schedule: Q01DX009 (ip), vehicle: saline with Tween-80.

Each structure is given as a SMILES string. Values joined by “and” are separate entries in the source; they are usually repeats but may differ in a detail not shown here. Equal entries are not always repeated. Inconclusive results and toxic doses are left out.

Consider `O=S(=O)(NC(=S)S)c1ccccc1`, for which the T/C (dose: 12.5 mg/kg/injection, schedule: Q01DX009 (ip), vehicle: water) was 91 % of control; the T/C (dose: 25.0 mg/kg/injection, schedule: Q01DX009 (ip), vehicle: water) was 94 % of control; the T/C (dose: 50.0 mg/kg/injection, schedule: Q01DX009 (ip), vehicle: water) was 86 % of control.

`CC1CCCN(C)C1` (centres undefined): the T/C was 117 % of control under setting [1] and 120 % of control under setting [2].

As to `Cc1cc(C(C)(CC(C)C)c2ccc(O)c(C)c2)ccc1O`, the T/C reads like this: under setting [3], 107 % of control; under setting [4], 94 % of control.

For `CN(C)C1CCN(Cc2ccccc2)CC1`, the T/C was 100 % of control (dose: 50.0 mg/kg/injection, schedule: Q04DX003 (ip), vehicle: saline); 90 % of control (dose: 100.0 mg/kg/injection, schedule: Q04DX003 (ip), vehicle: saline); 93 % of control (dose: 200.0 mg/kg/injection, schedule: Q04DX003 (ip), vehicle: saline).

As for `Clc1ccc(COC(Cn2ccnc2)c2ccc(Cl)cc2Cl)c(Cl)c1` (centres undefined), the T/C runs as follows: under setting [5], 106 % of control; under setting [1], 115 % of control; under setting [2], 96 % of control; under setting [6], 106 % of control.

As for `Oc1ccccc1C(Nc1nc2ccccc2s1)c1ccc2cccnc2c1O` (centres undefined), the T/C reads like this: under setting [5], 114 % of control; under setting [1], 105 % of control and 119 % of control (2×); (dose: 75.0 mg/kg/injection, schedule: Q01DX009 (ip), vehicle: Klucel (hydroxypropylcellulose) (HPC)) 107 % of control; under setting [2], 110 % of control and 119 % of control; (dose: 150.0 mg/kg/injection, schedule: Q01DX009 (ip), vehicle: Klucel (hydroxypropylcellulose) (HPC)) 97 % of control; under setting [6], 124 % of control. Moreover, under setting [7], the T/C is 152 % of control.

`O=c1oc(/C=C/c2ccccc2)nc2cc(Cl)ccc12`: under setting [2], the T/C is 109 % of control.

In the case of `Cc1cc2ncn(CO)c2cc1C`, the T/C runs as follows: under setting [8], 102 % of control; under setting [9], 97 % of control; under setting [10], 97 % of control.

Turning to `CCN(CC)c1ccc(N)cc1`, the T/C reads like this: under setting [11], 109 % of control; under setting [12], 95 % of control; under setting [13], 95 % of control.

On to `C[C@]12CC[C@@H]3c4ccc(O)cc4CC[C@H]3[C@@H]1CC[C@@H]2O`, for which the T/C (dose: 6.25 mg/kg/injection, schedule: Q01DX009 (ip), vehicle: Klucel (hydroxypropylcellulose) (HPC)) was 97 % of control; the T/C (dose: 12.5 mg/kg/injection, schedule: Q01DX009 (ip), vehicle: Klucel (hydroxypropylcellulose) (HPC)) was 94 % of control; the T/C under setting [5] is 93 % of control; the T/C under setting [1] is 97 % of control; the T/C under setting [2] was 88 % of control; the T/C under setting [6] was 87 % of control.

As to `CCOC(=O)c1ccc(OC(=O)Nc2ccccc2OC)cc1`, the T/C was 95 % of control under setting [8] and 88 % of control under setting [9].

`COC1=CC(=O)C(OC)=C(OC)C1=O`: the T/C (dose: 3.12 mg/kg/injection, schedule: Q01DX009 (ip), vehicle: saline with Tween-80) is 98 % of control; the T/C (dose: 6.25 mg/kg/injection, schedule: Q01DX009 (ip), vehicle: saline with Tween-80) is 98 % of control; the T/C (dose: 12.5 mg/kg/injection, schedule: Q01DX009 (ip), vehicle: saline with Tween-80) was 100 % of control; the T/C under setting [3] was 101 % of control; the T/C under setting [4] is 93 % of control.

As to `CC(Cc1ccc(O)c(O)c1)C(C)Cc1ccc(O)c(O)c1` (centres undefined), the T/C runs as follows: (dose: 750.0 mg/kg/injection, schedule: Q01DX009 (oral), vehicle: saline) 100 % of control; (dose: 1500.0 mg/kg/injection, schedule: Q01DX009 (oral), vehicle: saline) 97 % of control.

As for `O=C(CCBr)N1CCN(C(=O)CCBr)CC1`, the T/C reads like this: (dose: 2.5 mg/kg/injection, schedule: Q01DX009 (ip), vehicle: saline with Tween-80) 100 % of control; under setting [14], 102 % of control; under setting [11], 109 % of control; (dose: 10.0 mg/kg/injection, schedule: Q01DX009 (ip), vehicle: saline with Tween-80) 104 % of control; under setting [12], 111 % of control and 117 % of control; under setting [15], 116 % of control. The T/C under setting [13] is 119 % of control and the T/C under setting [16] is 122 % of control.

With `CCOC(=O)CCC[P+](c1ccccc1)(c1ccccc1)c1ccccc1`, the T/C reads like this: under setting [14], 117 % of control; under setting [15], 117 % of control; under setting [16], 121 % of control; (dose: 66.0 mg/kg/injection, schedule: Q01DX009 (ip), vehicle: saline with Tween-80) 116 % of control; (dose: 80.0 mg/kg/injection, schedule: Q01DX009 (ip), vehicle: saline with Tween-80) 113 % of control; under setting [8], 100 % of control. Besides, the T/C runs as follows: (dose: 140.0 mg/kg/injection, schedule: Q01DX009 (ip), vehicle: saline with Tween-80) 112 % of control; (dose: 160.0 mg/kg/injection, schedule: Q01DX009 (ip), vehicle: saline with Tween-80) 116 % of control; (dose: 210.0 mg/kg/injection, schedule: Q01DX009 (ip), vehicle: saline with Tween-80) 104 % of control.

On to `c1cc(NC2CCCCC2)ccc1CN1CCOCC1`, for which the T/C is, setting by setting: (dose: 12.5 mg/kg/injection, schedule: Q01DX009 (ip), vehicle: saline + Tween-80 + alcohol) 100 % of control and 104 % of control; (dose: 25.0 mg/kg/injection, schedule: Q01DX009 (ip), vehicle: saline + Tween-80 + alcohol) 91 % of control and 102 % of control; (dose: 50.0 mg/kg/injection, schedule: Q01DX009 (ip), vehicle: saline + Tween-80 + alcohol) 91 % of control and 97 % of control; (dose: 100.0 mg/kg/injection, schedule: Q01DX009 (ip), vehicle: saline + Tween-80 + alcohol) 88 % of control and 97 % of control; (dose: 200.0 mg/kg/injection, schedule: Q01DX009 (ip), vehicle: saline + Tween-80 + alcohol) 88 % of control and 89 % of control; (dose: 400.0 mg/kg/injection, schedule: Q01DX009 (ip), vehicle: saline + Tween-80 + alcohol) 95 % of control.

In the case of `CC(=O)/C(C)=C\c1ccccc1`, the T/C under setting [8] was 102 % of control, the T/C under setting [9] is 95 % of control and the T/C under setting [10] is 86 % of control.

Regarding `COC(=O)/C=C/N1C(=O)c2ccccc2C1=O`, the T/C reads like this: under setting [2], 91 % of control; (dose: 135.0 mg/kg/injection, schedule: Q01DX009 (ip), vehicle: Klucel (hydroxypropylcellulose) (HPC)) 90 % of control; under setting [6], 95 % of control; (dose: 300.0 mg/kg/injection, schedule: Q01DX009 (ip), vehicle: Klucel (hydroxypropylcellulose) (HPC)) 95 % of control; under setting [7], 91 % of control.

Regarding `CCOC(=O)c1ccc(NC(=O)Nc2ccc(Cl)cc2)cc1`, the T/C reads like this: under setting [2], 106 % of control; under setting [6], 106 % of control; under setting [7], 100 % of control.

In the case of `CNc1nc2c(N)ncnc2n1C1OC(CO)C(O)C1O` (centres undefined), the T/C by setting is: (dose: 1.56 mg/kg/injection, schedule: Q01DX009 (ip), vehicle: saline) 94 % of control; (dose: 3.12 mg/kg/injection, schedule: Q01DX009 (ip), vehicle: saline) 90 % of control; (dose: 6.25 mg/kg/injection, schedule: Q01DX009 (ip), vehicle: saline) 95 % of control; (dose: 12.5 mg/kg/injection, schedule: Q01DX009 (ip), vehicle: saline) 101 % of control; (dose: 25.0 mg/kg/injection, schedule: Q01DX009 (ip), vehicle: saline) 101 % of control.

For `C[N+](C)(C)CCOc1ccc(Cl)cc1`, the T/C reads like this: (dose: 12.5 mg/kg/injection, schedule: Q04DX003 (ip), vehicle: Klucel (hydroxypropylcellulose) (HPC)) 105 % of control; (dose: 25.0 mg/kg/injection, schedule: Q04DX003 (ip), vehicle: Klucel (hydroxypropylcellulose) (HPC)) 107 % of control; (dose: 50.0 mg/kg/injection, schedule: Q04DX003 (ip), vehicle: Klucel (hydroxypropylcellulose) (HPC)) 107 % of control; (dose: 100.0 mg/kg/injection, schedule: Q04DX003 (ip), vehicle: Klucel (hydroxypropylcellulose) (HPC)) 94 % of control.

With `[Cl][Ge]([c]1ccccc1)([c]1ccccc1)[c]1ccccc1`, the T/C by setting is: under setting [2], 96 % of control; under setting [6], 96 % of control; under setting [7], 100 % of control.
